Test results from article PMC4476799, “Englerin A Agonizes the TRPC4/C5 Cation Channels to Inhibit Tumor Cell Line Proliferation” (PLoS ONE, 2015).
Like-named read-outs stand apart in the source and are kept apart here.

Test system: cancer cell lines from the cancer cell line encyclopedia (CCLE)
Experiment: Cell line profiling (CLiP) proliferation experiment
Assay type: cell-based
Design: ACTIVITY_AREA: scale not given here; AMAX: unit not given here
Details: for IC50: read-out: Crossing Point; for EC50: read-out: Inflection Point
Description: Compound profiling experiment and data analysis was performed as previously described. Data was imported and plotted using the Tibco Spotfire DXP application. Lines were categorized as sensitive, intermediate and refractory as follows: Amax<-40 & Inflection Point <2 ~ Sensitive, Amax>-20 & Inflection Point >10 ~ Refractory, all else were called Intermediate. Cancer Cell line HG-U133 Plus 2 data was processed and normalized as described. […] Five sets of refractory cell lines were generated from the pool of refractory cell lines trying to match the lineage composition of the set of sensitive cell lines. The limma package was used as previously described to perform the statistical comparison.

[1] = Homo sapiens, ZR-75-30, ZR-75-30 cell line, breast, ductal_carcinoma
[2] = KYO1, KYO-1 (haematopoietic_and_lymphoid_tissue)
[3] = LP-1 (haematopoietic_and_lymphoid_tissue)
[4] = Loucy (haematopoietic_and_lymphoid_tissue)
[5] = MOLM16, cell line MOLM-16 (haematopoietic_and_lymphoid_tissue)
[6] = NCI-H1869, lung, squamous_cell_carcinoma
[7] = NCI-H2073, NCI-H2073, lung, adenocarcinoma
[8] = OCI-M1, OCI-M1, haematopoietic_and_lymphoid_tissue, acute_myeloid_leukaemia
[9] = PaTuÂ 8988s, cell line PA-TU-8988S
[10] = SH-10-TC, cell line SH-10-TC, stomach
[11] = SNU878, cell line SNU-878, liver, hepatocellular_carcinoma
[12] = SUP-M2, SUP-M2 (haematopoietic_and_lymphoid_tissue, anaplastic_large_cell_lymphoma)
[13] = T24 (urinary_tract, transitional_cell_carcinoma)
[14] = T84 (large_intestine, adenocarcinoma)
[15] = TE-1 (oesophagus, squamous_cell_carcinoma)
[16] = TEN (endometrium, clear_cell_carcinoma)
[17] = TT2609-C02 (thyroid, follicular_carcinoma)
[18] = U266B1 (haematopoietic_and_lymphoid_tissue, plasma_cell_myeloma)

## CC(C)[C@@]12C[C@@H](O)[C@@](C)(O1)[C@@H]1CC[C@@H](C)[C@H]1[C@@H]2OC(=O)/C=C/c1ccccc1 [Englerin B]
[1]
  IC50: > 30 µM
  EC50: 29.7 µM
Hs766T, cell line Hs 766T, pancreas
  IC50: > 30 µM
Hs766T, cell line Hs 766T
  IC50: > 30 µM
Hs 940.T cells
  IC50: > 30 µM
IGR-39, cell line IGR-39, skin
  IC50: > 30 µM
IGR-39, cell line IGR-39
  IC50: > 30 µM
JHH7, JHH-7
  IC50: 13.7 µM
JHH-2, JHH-2
  IC50: > 30 µM
JHH-2, cell line JHH-2
  IC50: > 30 µM
JHH-5
  IC50: 12.4 µM
JHOM-1
  IC50: 28.8 µM
  EC50: 28.8 µM
JHUEM-2
  IC50: 15.2 µM
JHUEM-2 cells
  IC50: 15.2 µM
K029AX (skin)
  IC50: > 30 µM
K029AX
  IC50: > 30 µM
  EC50: 26.4 µM
KASUMI-2
  IC50: 15.8 µM
  EC50: 10.6 µM
KASUMI-2 cells
  IC50: 15.8 µM
  EC50: 10.6 µM
KHM-1B, KHM-1B cells
  EC50: 17.2 µM
KHM-1B
  IC50: 19.5 µM
  EC50: 17.2 µM
KMM-1, KMM-1
  IC50: 15.7 µM
KMRC-1, KMRC-1
  IC50: > 30 µM
KMRC-1, KMRC-1 cells
  IC50: > 30 µM
KMRC-2
  IC50: > 30 µM
KMRC-2 cells
  IC50: > 30 µM
KMRC-20
  IC50: > 30 µM
  EC50: 0.14 µM
KMRC-20 cells
  IC50: > 30 µM
  EC50: 0.14 µM
KMS-26, KMS-26
  IC50: 15.5 µM
  EC50: 16.6 µM
KMS-26, KMS-26 cells
  EC50: 16.6 µM
KMS-27, KMS-27
  IC50: 28.4 µM
  EC50: 28.4 µM
KMS-27, KMS-27 cells
  IC50: 28.4 µM
  EC50: 28.4 µM
KMS-28BM
  IC50: 29.2 µM
KMS-34, KMS-34
  IC50: 27.9 µM
KO52
  IC50: 27 µM
KP-1NL (pancreas)
  IC50: > 30 µM
KP-1NL
  IC50: > 30 µM
KP-N-SI9s
  IC50: 21.7 µM
  EC50: 23.1 µM
KP-N-YN (autonomic_ganglia)
  IC50: > 30 µM
KP-N-YN
  IC50: > 30 µM
KPL-1, KPL-1
  IC50: 19.9 µM
KS-1
  IC50: 28.3 µM
KURAMOCHI (ovary)
  IC50: 20.7 µM
  EC50: 16.1 µM
KYM-1 (soft_tissue)
  IC50: 12.7 µM
[2]
  IC50: 19.7 µM
  EC50: 12.1 µM
KYO1, KYO-1 cells
  EC50: 12.1 µM
Karpas-620, KARPAS-620
  IC50: 17.6 µM
  EC50: 17.6 µM
Kelly
  IC50: 15.4 µM
  EC50: 16 µM
Ki-JK (haematopoietic_and_lymphoid_tissue)
  IC50: 14.5 µM
Ki-JK
  IC50: 14.5 µM
  EC50: 14.1 µM
L3.3 (pancreas)
  IC50: > 30 µM
LC-1/sq-SF (lung)
  IC50: > 30 µM
  EC50: 22.8 µM
LK-2 (lung)
  IC50: > 30 µM
LMSU (stomach)
  IC50: 20 µM
[3]
  IC50: 18.7 µM
  EC50: 18.7 µM
LP-6 (soft_tissue)
  IC50: > 30 µM
Li-7 (liver)
  IC50: > 30 µM
[4]
  IC50: 13.6 µM
  EC50: 12.2 µM
MB 157 (breast)
  IC50: > 30 µM
  EC50: 14.7 µM
MCAS (ovary)
  IC50: > 30 µM
MDST8, MDST8 (large_intestine)
  IC50: > 30 µM
[5]
  IC50: 15.3 µM
  EC50: 15.3 µM
Mel202, cell line Mel202 (eye)
  IC50: > 30 µM
  EC50: 20.6 µM
Mel202, cell line Mel202
  IC50: > 30 µM
Mono-Mac-1, cell line MONO-MAC-1 (haematopoietic_and_lymphoid_tissue)
  IC50: 21.4 µM
NCI-H196, NCI-H196, lung, small_cell_carcinoma
  IC50: > 30 µM
NCI-H196, cell line NCI-H196
  IC50: > 30 µM
NCI-H841, NCI-H841, lung, small_cell_carcinoma
  IC50: 17.1 µM
NCI-H1568, cell line NCI-H1568 (lung)
  IC50: 6.63 µM
NCI-H1781, cell line NCI-H1781 (lung)
  IC50: 11.2 µM
[6]
  IC50: > 30 µM
  EC50: 2.95 µM
NCI-H1869 cells
  IC50: > 30 µM
  EC50: 2.95 µM
NCI-H2023, NCI-H2023, lung, adenocarcinoma
  IC50: 13.3 µM
[7]
  IC50: 24 µM
  EC50: 20.3 µM
NCI-H2106, lung, non_small_cell_carcinoma
  IC50: > 30 µM
NCI-H2172, NCI-H2172, lung, non_small_cell_carcinoma
  IC50: 24.8 µM
NCI-H2330, lung, small_cell_carcinoma
  IC50: > 30 µM
OC 316, ovary, adenocarcinoma
  IC50: > 30 µM
[8]
  IC50: 13.5 µM
  EC50: 11.8 µM
OCI-M1, OCI-M1 cells
  EC50: 11.8 µM
OMM2.3 (eye)
  IC50: > 30 µM
OMM2.5 cells
  IC50: > 30 µM
ONCO-DG-1, cell line ONCO-DG-1
  IC50: 3.52 µM
OUMS-23, OUMS-23 cells
  EC50: 17.7 µM
OUMS-23, cell line OUMS-23
  IC50: 14.8 µM
  EC50: 17.7 µM
OV7, OV7 cells
  IC50: > 30 µM
OV56, OV56 cells
  IC50: > 30 µM
OV56, cell line OV56
  IC50: > 30 µM
PL-21, PL-21 cells
  EC50: 26.2 µM
PL-21, cell line PL-21
  IC50: 21 µM
  EC50: 26.2 µM
[9]
  IC50: 23.3 µM
  EC50: 23.3 µM
RCC10RGB cells
  IC50: > 30 µM
RCH-ACV cells
  EC50: 12.1 µM
RERF-LC-AI cells
  IC50: > 30 µM
  EC50: 17.9 µM
RKN (soft_tissue)
  IC50: > 30 µM
RKO (large_intestine)
  EC50: 13.1 µM
RMUG-S (ovary)
  IC50: > 30 µM
Ri-1, RI-1 cells
  IC50: 9.99 µM
  EC50: 9.99 µM
SH-4 (skin)
  IC50: > 30 µM
SH-10-TC, SH-10-TC (stomach)
  IC50: > 30 µM
[10]
  IC50: > 30 µM
  EC50: 11.1 µM
SNG-M (endometrium)
  IC50: > 30 µM
[11]
  IC50: 27.3 µM
  EC50: 27.3 µM
SNU-119 (ovary)
  IC50: > 30 µM
SNU-216, SNU-216 (stomach)
  IC50: > 30 µM
SNU-216, cell line SNU-216, stomach
  IC50: > 30 µM
SNU-738 (central_nervous_system)
  IC50: > 30 µM
SNU-C5 (large_intestine)
  IC50: > 30 µM
SNU-C5 (large_intestine, adenocarcinoma)
  IC50: > 30 µM
SR-786, SR-786 (haematopoietic_and_lymphoid_tissue)
  IC50: > 30 µM
SR-786, SR-786 (haematopoietic_and_lymphoid_tissue, anaplastic_large_cell_lymphoma)
  IC50: > 30 µM
SUM52, SUM-52 (breast)
  IC50: > 30 µM
SUM52, SUM-52 (breast, NS)
  IC50: > 30 µM
SUM52PE, SUM52PE (breast)
  IC50: > 30 µM
SUM52PE, SUM52PE (breast, NS)
  IC50: > 30 µM
[12]
  IC50: 18.2 µM
  EC50: 18.2 µM
SUP-M2, SUP-M2 cells
  IC50: 18.2 µM
  EC50: 18.2 µM
SW1271, SW 1271 (lung)
  IC50: > 30 µM
SW1271, SW 1271 (lung, small_cell_carcinoma)
  IC50: > 30 µM
T24 (urinary_tract)
  IC50: > 30 µM
[13]
  IC50: > 30 µM
  EC50: 5 µM
[14]
  IC50: 28.3 µM
  EC50: 9.52 µM
T778 (soft_tissue)
  IC50: > 30 µM
T778 (soft_tissue, well_differentiated)
  IC50: > 30 µM
TC-71, TC-71 (bone, NS)
  IC50: 25.2 µM
TE 617.T (soft_tissue, NS)
  IC50: 16.5 µM
  EC50: 11.9 µM
TE 617.T cells
  EC50: 11.9 µM
[15]
  IC50: 18.9 µM
  EC50: 16.5 µM
TE-5 (oesophagus, squamous_cell_carcinoma)
  IC50: 29.6 µM
TE-6 (oesophagus, squamous_cell_carcinoma)
  IC50: 23.8 µM
TEN (endometrium)
  IC50: > 30 µM
[16]
  IC50: > 30 µM
  EC50: 13.1 µM
TF-1 (haematopoietic_and_lymphoid_tissue, acute_myeloid_leukaemia)
  IC50: 16.7 µM
[17]
  IC50: 22.3 µM
  EC50: 14.6 µM
TT2609-C02 cells
  EC50: 14.6 µM
U266B1 (haematopoietic_and_lymphoid_tissue)
  IC50: > 30 µM
[18]
  IC50: > 30 µM
  EC50: 16 µM
UACC-62 cell line, skin, NS
  ACTIVITY_AREA: 41.15
  AMAX: -44.29
  RESPONSE: INTERMEDIATE
UACC-257 (skin, NS)
  ACTIVITY_AREA: 31.33
  AMAX: -80.26
  RESPONSE: INTERMEDIATE
